Results as given in patent US8003083B2, “Benzylidene malonamide and salt thereof, ultraviolet ray absorbent, and agent for external application to the skin” (Shiseido Company, Ltd., priority 2006, dated 2011).
Each block holds one compound with its values, some of them ahead of it.

Assays:
[1] = 405 nm visible light absorbance measurement; type: physicochemical; details: water, optical path length 1 cm
Procedure: For a Comparative example, sodium 2-hydroxy-4-methoxy-5-sulfoquisonium benzophenone, a conventional water soluble ultraviolet absorbent, was measured in the same manner.

[2] = External appearance and low temperature storage of lotion and cream samples; type: physicochemical
Procedure: (§1) (a) lotion and (b) cream were prepared according to the following recipes. For the ultraviolet absorbent, benzilidene malonamide (bis-N,N′-[2-(2-hydroxyethoxy)ethyl]-4-methoxybenzilidene malonamide) of the present invention and, as a Comparison example, a water soluble ultraviolet absorbent sodium 2-hydroxy-4-methoxy-5-sulfoquisonium benzophenone were used.
(§2) The water phase and the alcohol phase were separately prepared and then mixed together.
(§3) Propylene glycol and the ultraviolet absorbent were dissolved in ion-exchanged water and the temperature was raised to 70° C. and maintained. The other ingredients were mixed, heated and melted, and the temperature was maintained at 70° C. (oil phase). The oil phase was added to the water phase and pre-emulsification was conducted; after a homomixer was used to emulsify the mixture homogeneously, the temperature was cooled down to 30° C. while thorough stirring was maintained.

[3] = Ultraviolet absorption spectrum measurement; type: physicochemical; details: solvent water, concentration 10 ppm, optical path length 1 cm, FIG. 1
Procedure: An ultraviolet absorption spectrum of the benzilidene malonamide obtained in Example 1 was measured (solvent: water, concentration 10 ppm, optical path length 1 cm) by using a spectrophotometer (V-560 from Jasco Co. Ltd.).

[4] = Stability test for use in combination with an inorganic powder ultraviolet shielding agent; type: physicochemical; details: sunscreen cream with inorganic powders, ultraviolet absorbent 10.0 wt %, stored at 50° C. for two months, visual
Procedure: Sunscreen cream was prepared according to the following recipe; it was stored at 50° C. for two months and visually observed for discoloration to investigate the stability when used in combination with an inorganic powder ultraviolet shielding agent.

Solubility in water = type: physicochemical
Procedure: Solubility in water was measured for the benzilidene malonamide of the present invention. For a Comparative example, sodium 2-hydroxy-4-methoxy-5-sulfoquisonium benzophenone was measured in the same manner.

[5] = Photostability test, sunlight exposure; type: physicochemical; details: 80 MJ/m^2
Procedure: A solution of the ultraviolet absorbent of the present invention was exposed to sunlight for two weeks (sunlight exposure level 80 MJ/m^2) and then the residual ratio and changes in the appearance were investigated and the ultraviolet absorption spectrum was measured (solvent: water, concentration 10 ppm, optical path length 1 cm) by using a spectrophotometer; the ultraviolet absorption spectrum was integrated over a range of 290-400 nm to obtain the area value, which was compared with the value before the sunlight exposure.
Changes in the residual ratio and the area value of the ultraviolet absorption spectrum were evaluated based on the following criteria.
Δ: 70% or more and less than 90% of the value before the sunlight exposure.
X: Less than 70% of the value before the sunlight exposure.

[6] = test system: flexor forearm skin of healthy male and female volunteers; assay: Skin irritability test, 24-hour closed patch test; type: in vivo, human; details: ultraviolet absorbent 10 wt %, 20 volunteers
Procedure: This test was conducted by using the same sample as in Test example 4 (blend ratio of the ultraviolet absorbent was 10 wt %).
A Finn chamber was used to conduct the 24-hour closed patch test on the flexor forearm of healthy male and female volunteers; a group of 20 volunteers were used and the following evaluation criteria were used.
The average score was calculated and the evaluation was done based on the following criteria.
⊚: The average score is 0.
◯: The average score is more than 0 and less than 1.
Δ: The average score is 1 or more and less than 2.
X: The average score is 2 or more.

[7] = test system: degree of sunburn after exposure to direct sunlight; assay: Ultraviolet prevention effect, actual use test on a beach in summer; type: in vivo, human
Procedure: An actual use test was conducted on a beach in summer. The same amount of sample was applied on the left and right halves of panelists' backs. The degree of sunburn after exposure to direct sunlight was evaluated based on the following criteria. The test was conducted with a group of 10 panelists.
Very effective: No or very little sunburn symptoms were observed.
Effective: A mild degree of sunburn symptoms were observed.
Not effective: A strong degree of sunburn symptoms were observed.
⊚: 80% or more of the subjects report “very effective” or “effective.”
◯: 50% or more and less than 80% of the subjects report “very effective” or “effective.”
∇: 30% or more and less than 50% of the subjects report “very effective” or “effective.”
X: Less than 30% of the subjects report “very effective” or “effective.”
as §1, §2, §3

Absorbance ([1]; concentration 10 wt %): 0
External appearance ([2]; (b) Cream, blend ratio 1): White
External appearance ([2]; (b) Cream, blend ratio 5): White
External appearance ([2]; (b) Cream, blend ratio 10): White
Discoloration [4]: None
Solubility (room temperature) (Solubility in water): 30 or more wt %
SMILES: COc1ccc(C=C(C(=O)NCCOCCO)C(=O)NCCOCCO)cc1 [Benzilidene malonamide of formula (1), bis-N,N′-[2-(2-hydroxyethoxy)ethyl]-4-methoxybenzilidene malonamide]
Precipitation during low temperature storage ([2]; external preparations of Tables 3 and 4 (lotion and cream)): no precipitation of the ultraviolet absorbent was observed at all
Ultraviolet absorption spectrum (absorption capacity) [3]: superior absorption capacity over a wide ultraviolet wavelength region
Changes in the area value of the ultraviolet absorption spectrum ([5]; 290-400 nm integrated, after sunlight for two weeks, water, 10 ppm, 1 cm): ⊚ (95% or more of the value before the sunlight exposure.)
Residual ratio ([5]; solution exposed to sunlight for two weeks): ⊚ (95% or more of the value before the sunlight exposure.)
Skin irritability patch test evaluation (average score) ([6]; Cream): ⊚ (The average score is 0.)
Skin irritability patch test evaluation (average score) ([6]; Lotion): ⊚ (The average score is 0.)
Ultraviolet prevention effect ([7]; (a) Lotion, blend ratio 1, 10 panelists): ⊚ (80% or more of the subjects report “very effective” or “effective.”)
Ultraviolet prevention effect ([7]; (a) Lotion, blend ratio 5, 10 panelists): ⊚ (80% or more of the subjects report “very effective” or “effective.”)
Ultraviolet prevention effect ([7]; (a) Lotion, blend ratio 10, 10 panelists): ⊚ (80% or more of the subjects report “very effective” or “effective.”)
Ultraviolet prevention effect ([7]; (b) Cream, blend ratio 1, 10 panelists): ⊚ (80% or more of the subjects report “very effective” or “effective.”)
Ultraviolet prevention effect ([7]; (b) Cream, blend ratio 5, 10 panelists): ⊚ (80% or more of the subjects report “very effective” or “effective.”)
Ultraviolet prevention effect ([7]; (b) Cream, blend ratio 10, 10 panelists): ⊚ (80% or more of the subjects report “very effective” or “effective.”)

SMILES: COc1cc(O)c(C(=O)c2ccccc2)cc1S(=O)(=O)[O-].[Na+] [sodium 2-hydroxy-4-methoxy-5-sulfoxonium benzophenone, reference compound]
Absorbance ([1]; concentration 0.1 wt %): 0.06
Absorbance ([1]; concentration 1 wt %): 0.32
Absorbance ([1]; concentration 6 wt %): 1.99
Precipitation during low temperature storage ([2]; (a) Lotion, blend ratio 5): **Crystals precipitated during low temperature storage.
External appearance ([2]; (b) Cream, blend ratio 1): Yellow
External appearance ([2]; (b) Cream, blend ratio 5): Yellow**
Precipitation during low temperature storage ([2]; (b) Cream, blend ratio 5): **Crystals precipitated during low temperature storage.
